The values that follow are results of earlier work, collected in patent publication EP2382994A1, “Ligand targeted nanocapsules for the delivery of RNAi and other agents” (Cattaneo, Maurizio Victor, priority 2010, dated 2011).

For data set [1] the following is noted: systemic delivery of 20 mg DOX; Tang et al. 2007.

As for `COc1cccc2c1C(=O)c1c(O)c3c(c(O)c1C2=O)C[C@@](O)(C(=O)CO)C[C@@H]3O[C@H]1C[C@H](N)[C@H](O)[C@H](C)O1` [DOX, Doxorubicin], in the data set on advanced stage melanoma, the “clinical efficacy in melanoma” value is recorded as “essentially ineffective”. Further, the “lethal toxicity, time of treatment” value in data set [1] is recorded as not above 8 days.
